Columns and labels:
VEGFR2 = target: T1, VEGFR2 (Homo sapiens, UniProt P35968); assay: VEGFR2 in vitro kinase inhibitory activity assay (TRF); assay type: biochemical; conditions: 0.5 μM ATP, 1 hour; read-out: VEGFR2 IC50(μM) or % I
T1 construct: purchased Upstate
Procedure: (§1) FGFR3, VEGFR2 and PDGFR in vitro Kinase Inhibitory Activity Assays
(§2) Enzymes (from Upstate), prepared at 2× final concentration, were incubated with test compounds, biotinylated Flt3 substrate (biotin-VASSDNEYFYVDF) (Cell Signalling Technology Inc.) and ATP in the appropriate assay buffer (Table 1). The reaction was allowed to proceed for 3 hours (FGFR3), 1 hour (VEGFR2, PDGFR-beta) at room temperature on a plate shaker at 700 rpm before being stopped with 35 mM EDTA, pH 8 (FGFR3, VEGFR2) or 55 mM EDTA, pH 8 (PDGFR-beta). 5× detection mix (50 mM HEPES pH 7.5, 0.1% BSA, 11.34 nM Eu-anti-pY (PY20) (PerkinElmer) 74 nM SA-XL665 (Cisbio) for FGFR3, 50 mM HEPES, pH 7.5, 0.1% BSA, 11.34 nM Eu-anti-pY (PY20), 187.5 nM SA-XL665 for VEGFR2 and 50 mM HEPES, pH 7.5, 0.1% BSA, 11.34 nM Eu-anti-pY (PT66) (PerkinElmer), 375 nM SA-XL665 (Cisbio) for PDGFR-beta) was then added to each well and the plate sealed and incubated at room temperature for one hour on a plate shaker at 700 rpm. The plate was then read on a Packard Fusion plate reader or a BMG Pherastar both in TRF mode.

Ba/F3-TEL-FGFR3 cells = target: T2, Ba/F3-TEL-FGFR3 cells (Homo sapiens, UniProt P22607); assay: Ba/F3-TEL-FGFR3 cell proliferation assay (Alamar Blue); assay type: cell-based; conditions: 72 hours; for GI50: read-out: BaF3-TEL-FGFR3 prolif
T2 construct: fused on or other part: P41212 (Transcription factor ETV6)
Procedure: (§3) Ba/F3-TEL-FGFR3 & Ba/F3 (WT) Cell Proliferation Assays
(§4) Stably transfected Ba/F3-TEL-FGFR3 cells were plated out into black 96-well tissue culture plates with clear bottoms in RPMI medium containing 10% FBS and 0.25 mg/ml G418 at a density of 5×10^3 cells/well (200 μl per well). The parental wild-type Ba/F3 cells (DSMZ no.: ACC 300) were plated out into black 96-well tissue culture plates with clear bottoms in RPMI medium containing 10% FBS and 2 ng/ml mouse IL-3 (R&D Systems) at a density of 2.5×10^3 cells/well (200 μl per well). Plates were placed in an incubator overnight before adding the compounds the following day. Dilutions of compounds were made in DMSO starting at 10 mM and were diluted into the wells to give a final DMSO concentration of 0.1% in assay. Compounds were left on the cells for 72 hours before the plates were removed from the incubator and 20 μl of Alamar Blue™ (Biosource) was added to each well. Plates were placed in the incubator for 4-6 hours before reading plates at 535 nm (excitation)/590 nm (emission) on a Fusion plate reader (Packard). Where inhibition is high an IC50 can be determined.

FGFR3 = target: T3, FGFR3 (Homo sapiens, UniProt P22607); assay: FGFR3 in vitro kinase inhibitory activity assay (TRF); assay type: biochemical; conditions: 8 μM ATP, 3 hours; read-out: FGFR3 IC50(μM) or % I
T3 construct: purchased Upstate
Procedure: as §1, §2

[1] = test system: parental wild-type Ba/F3 cells; assay: Ba/F3 (WT) cell proliferation assay (Alamar Blue); assay type: cell-based; conditions: BaF3, 72 hours, read-out: BaF3 WT prolif; for IC50: with mouse IL-3
Procedure: as §3, §4

T3 sequence (P22607 23-806): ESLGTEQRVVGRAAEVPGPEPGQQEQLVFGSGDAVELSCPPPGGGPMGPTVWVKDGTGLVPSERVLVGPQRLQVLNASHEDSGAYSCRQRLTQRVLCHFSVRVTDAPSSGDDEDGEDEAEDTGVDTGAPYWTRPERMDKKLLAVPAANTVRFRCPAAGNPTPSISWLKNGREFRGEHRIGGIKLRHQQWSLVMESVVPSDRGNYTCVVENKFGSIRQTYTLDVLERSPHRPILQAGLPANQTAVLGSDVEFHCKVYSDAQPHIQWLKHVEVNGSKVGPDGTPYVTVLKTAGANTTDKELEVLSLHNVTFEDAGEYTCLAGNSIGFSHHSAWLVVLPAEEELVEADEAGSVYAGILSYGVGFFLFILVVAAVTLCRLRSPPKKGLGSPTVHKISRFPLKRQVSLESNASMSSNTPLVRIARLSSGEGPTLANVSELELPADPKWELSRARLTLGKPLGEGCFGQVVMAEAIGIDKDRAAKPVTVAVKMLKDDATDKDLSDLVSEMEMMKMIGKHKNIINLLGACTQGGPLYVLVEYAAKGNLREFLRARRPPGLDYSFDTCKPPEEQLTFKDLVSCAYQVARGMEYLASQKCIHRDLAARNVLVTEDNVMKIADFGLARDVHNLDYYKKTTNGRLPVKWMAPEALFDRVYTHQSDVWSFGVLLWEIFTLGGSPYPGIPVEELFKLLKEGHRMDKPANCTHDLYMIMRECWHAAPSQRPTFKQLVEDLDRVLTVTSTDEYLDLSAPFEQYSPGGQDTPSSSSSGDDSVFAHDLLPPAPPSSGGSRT
T2 sequence (P22607 whole entry, change not shown, the tested form may be a part): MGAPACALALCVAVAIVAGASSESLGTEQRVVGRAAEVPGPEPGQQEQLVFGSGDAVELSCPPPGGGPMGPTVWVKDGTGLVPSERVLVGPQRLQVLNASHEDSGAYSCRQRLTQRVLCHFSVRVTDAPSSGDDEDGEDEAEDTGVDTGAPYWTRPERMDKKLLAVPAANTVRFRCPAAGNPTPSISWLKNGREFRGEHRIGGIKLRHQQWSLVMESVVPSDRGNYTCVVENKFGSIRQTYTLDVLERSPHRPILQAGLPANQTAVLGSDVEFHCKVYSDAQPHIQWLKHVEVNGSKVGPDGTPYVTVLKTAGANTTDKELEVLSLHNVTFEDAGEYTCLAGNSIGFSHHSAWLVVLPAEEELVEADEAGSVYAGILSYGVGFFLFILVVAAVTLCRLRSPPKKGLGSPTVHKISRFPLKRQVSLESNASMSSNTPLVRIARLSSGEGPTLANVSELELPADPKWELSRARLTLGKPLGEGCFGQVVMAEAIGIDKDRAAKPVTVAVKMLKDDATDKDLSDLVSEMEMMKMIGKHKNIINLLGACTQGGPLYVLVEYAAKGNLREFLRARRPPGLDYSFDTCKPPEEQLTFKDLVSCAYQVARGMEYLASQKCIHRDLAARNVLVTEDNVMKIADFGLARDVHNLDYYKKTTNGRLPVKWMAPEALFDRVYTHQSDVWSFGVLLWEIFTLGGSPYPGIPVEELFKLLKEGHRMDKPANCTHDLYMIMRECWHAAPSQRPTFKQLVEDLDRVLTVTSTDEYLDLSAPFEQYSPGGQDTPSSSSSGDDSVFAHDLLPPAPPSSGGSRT
T1 sequence (P35968 20-1356): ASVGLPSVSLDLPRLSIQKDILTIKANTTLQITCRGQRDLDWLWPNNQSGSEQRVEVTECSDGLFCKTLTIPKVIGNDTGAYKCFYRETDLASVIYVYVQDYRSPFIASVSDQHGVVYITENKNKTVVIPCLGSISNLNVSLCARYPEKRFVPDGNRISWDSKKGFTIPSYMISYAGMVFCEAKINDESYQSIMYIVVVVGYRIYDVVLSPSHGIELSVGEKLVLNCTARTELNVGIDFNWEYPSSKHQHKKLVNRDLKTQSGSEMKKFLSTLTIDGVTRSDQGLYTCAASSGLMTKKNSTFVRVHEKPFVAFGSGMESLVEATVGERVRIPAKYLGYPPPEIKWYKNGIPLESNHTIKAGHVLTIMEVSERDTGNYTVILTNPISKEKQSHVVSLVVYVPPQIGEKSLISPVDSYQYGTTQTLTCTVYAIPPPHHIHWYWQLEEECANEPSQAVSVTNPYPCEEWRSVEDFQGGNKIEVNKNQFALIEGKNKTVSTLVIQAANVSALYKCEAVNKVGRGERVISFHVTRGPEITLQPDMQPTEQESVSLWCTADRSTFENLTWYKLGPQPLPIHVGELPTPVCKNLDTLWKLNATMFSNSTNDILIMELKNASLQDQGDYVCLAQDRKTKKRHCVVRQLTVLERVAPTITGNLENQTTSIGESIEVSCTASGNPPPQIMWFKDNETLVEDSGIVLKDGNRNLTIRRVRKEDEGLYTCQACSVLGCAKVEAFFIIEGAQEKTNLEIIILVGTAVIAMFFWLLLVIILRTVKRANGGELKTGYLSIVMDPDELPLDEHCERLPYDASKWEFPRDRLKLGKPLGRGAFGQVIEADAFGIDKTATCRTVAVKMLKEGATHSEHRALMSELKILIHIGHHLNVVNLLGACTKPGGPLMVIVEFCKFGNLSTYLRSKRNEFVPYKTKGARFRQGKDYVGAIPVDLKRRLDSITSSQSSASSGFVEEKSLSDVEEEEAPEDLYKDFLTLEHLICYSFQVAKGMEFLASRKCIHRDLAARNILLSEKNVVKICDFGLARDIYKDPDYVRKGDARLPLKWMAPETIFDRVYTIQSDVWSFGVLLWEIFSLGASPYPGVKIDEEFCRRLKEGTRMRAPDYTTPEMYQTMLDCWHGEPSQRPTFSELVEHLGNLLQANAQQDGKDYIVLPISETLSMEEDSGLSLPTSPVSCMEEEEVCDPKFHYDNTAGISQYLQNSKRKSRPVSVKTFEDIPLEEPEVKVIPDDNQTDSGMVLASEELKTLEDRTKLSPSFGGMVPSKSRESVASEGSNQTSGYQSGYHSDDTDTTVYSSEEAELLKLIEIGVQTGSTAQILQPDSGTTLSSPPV

| IC50 (VEGFR2) | GI50 (Ba/F3-TEL-FGFR3 cells) | IC50 (FGFR3) | BaF3-TEL-FGFR3 prolif (μM) (Ba/F3-TEL-FGFR3 cells; % at 10.0 μM) | BaF3-TEL-FGFR3 prolif (μM) (Ba/F3-TEL-FGFR3 cells; % at 3.00 μM) | Structure (SMILES) | inhibition at 10 µM ([1]; Mus musculus) | inhibition at 3 µM ([1]; Mus musculus) | IC50 [1] | inhibition at 1 µM ([1]; Mus musculus, % at 1.00 μM) |
| --- | --- | --- | --- | --- | --- | --- | --- | --- | --- |
| 0.88 µM | 2200 nM | 0.033 µM | – | – | CN1CCN(C(=O)CCON=Cc2ccn3c(-c4cccc(NC(=O)NCC(F)(F)F)c4)cnc3c2)CC1 [Compound 1-51, 1-[3-(7-{[3-(4-Methyl-piperazin-1-yl)-3-oxo-propoxyimino]-methyl}-imidazo[1,2-a]pyridin-3-yl)-phenyl]-3-(2,2,2-trifluoro-ethyl)-urea] | 27% | – | – | – |
| 0.051 µM | – | 0.0023 µM | 0.000% at | – | C/C(=N\OCCCO)c1ccn2c(-c3cccc(NC(=O)NCC(F)(F)F)c3)cnc2c1 [Compound 1-47, 1-[3-(7-{1-[3-Hydroxy-propoxyimino]-ethyl}-imidazo[1,2-a]pyridin-3-yl)-phenyl]-3-(2,2,2-trifluoro-ethyl)-urea] | 63% | – | – | – |
| 0.23 µM | 300 nM | 0.0097 µM | – | – | O=C(NCC(F)(F)F)Nc1cccc(-c2cnc3cc(C(=NO)C4CC4)ccn23)c1 [Compound 1-50, 1-[3-(7-{Cyclopropyl-hydroxyimino-methyl}-imidazo[1,2-a]pyridin-3-yl)-phenyl]-3-(2,2,2-trifluoro-ethyl)-urea] | 62% | – | – | – |
| 0.47 µM | 250 nM | 0.029 µM | – | – | CN(C)CCON=Cc1ccn2c(-c3cccc(NC(=O)NCC(F)(F)F)c3)cnc2c1 [Compound 1-57, 1-(3-{7-[(2-Dimethylamino-ethoxyimino)-methyl]-imidazo[1,2-a]pyridin-3-yl}-phenyl)-3-(2,2,2-trifluoro-ethyl)-urea] | – | 30% | – | – |
| 0.38 µM | 140 nM | 0.0077 µM | – | – | O=C(NCC(F)(F)F)Nc1cccc(-c2cnc3cc(C=NOCc4cccnc4)ccn23)c1 [Compound 1-55, 1-(3-{7-[(Pyridin-3-ylmethoxyimino)-methyl]-imidazo[1,2-a]pyridin-3-yl}-phenyl)-3-(2,2,2-trifluoro-ethyl)-urea] | – | 51% | – | – |
| 0.67 µM | 2400 nM | 0.023 µM | – | – | N=C(N)Nc1nc(CON=Cc2ccn3c(-c4cccc(NC(=O)NCC(F)(F)F)c4)cnc3c2)cs1 [Compound 1-19, 1-(3-{7-[(2-Guanidino-thiazol-4-ylmethoxyimino)-methyl]-imidazo[1,2-a]pyridin-3-yl}-phenyl)-3-(2,2,2-trifluoro-ethyl)-urea] | – | – | 5200 nM | – |
| 0.23 µM | 260 nM | 0.015 µM | – | – | CON=C(c1ccn2c(-c3cccc(NC(=O)NCC(F)(F)F)c3)cnc2c1)C1CC1 [Compound 1-24, 1-[3-(7-{Cyclopropyl-methoxyimino-methyl}-imidazo[1,2-a]pyridin-3-yl)-phenyl]-3-(2,2,2-trifluoro-ethyl)-urea] | – | – | – | 38% |
| 0.068 µM | 48 nM | 0.0041 µM | – | – | COCCO/N=C(\C)c1ccn2c(-c3cccc(NC(=O)NCC(F)(F)F)c3)cnc2c1 [Compound 1-45, 1-[3-(7-{1-[2-Methoxy-ethoxyimino]-ethyl}-imidazo[1,2-a]pyridin-3-yl)-phenyl]-3-(2,2,2-trifluoro-ethyl)-urea] | – | – | 4000 nM | – |
| 0.96 µM | 1100 nM | 0.072 µM | – | – | O=C(NCC(F)(F)F)Nc1cccc(-c2cnc3cc(/C(=N/OCCO)C4CC4)ccn23)c1 [Compound 1-32, 1-[3-(7-{Cyclopropyl-[2-hydroxy-ethoxyimino]-methyl}-imidazo[1,2-a]pyridin-3-yl)-phenyl]-3-(2,2,2-trifluoro-ethyl)-urea] | 50% | – | – | – |
| 0.38 µM | 320 nM | 0.019 µM | – | – | CN1CCN(CCCON=Cc2ccn3c(-c4cccc(NC(=O)NCC(F)(F)F)c4)cnc3c2)CC1 [Compound 1-56, 1-[3-(7-{[3-(4-Methyl-piperazin-1-yl)-propoxyimino]-methyl}-imidazo[1,2-a]pyridin-3-yl)-phenyl]-3-(2,2,2-trifluoro-ethyl)-urea] | – | – | 3000 nM | – |
| > 1 µM | – | 0.059 µM | 28.0% at | – | CON=C(CC1CC1)c1ccn2c(-c3cccc(NC(=O)NCC(F)(F)F)c3)cnc2c1 [Compound 1-29, 1-[3-(7-{2-Cyclopropyl-1-methoxyimino-ethyl}-imidazo[1,2-a]pyridin-3-yl)-phenyl]-3-(2,2,2-trifluoro-ethyl)-urea] | 16% | – | – | – |
| 0.635 µM | 210 nM | 0.0194 µM | – | – | COCCON=Cc1ccn2c(-c3cccc(NC(=O)NCC(F)(F)F)c3)cnc2c1 [Compound 1-1, 1-(3-{7-[(2-Methoxy-ethoxyimino)-methyl]-imidazo[1,2-a]pyridin-3-yl}-phenyl)-3-(2,2,2-trifluoro-ethyl)-urea] | – | – | 310 nM | – |
| 0.54 µM | 240 nM | 0.018 µM | – | – | Cc1noc(C)c1CON=Cc1ccn2c(-c3cccc(NC(=O)NCC(F)(F)F)c3)cnc2c1 [Compound 1-12, 1-(3-{7-[(3,5-Dimethyl-isoxazol-4-ylmethoxyimino)-methyl]-imidazo[1,2-a]pyridin-3-yl}-phenyl)-3-(2,2,2-trifluoro-ethyl)-urea] | 38% | – | – | – |
| 0.39 µM | 1800 nM | 0.026 µM | – | – | O=C(NCC(F)(F)F)Nc1cccc(-c2cnc3cc(C=NOCCCN4CCC(O)C4)ccn23)c1 (stereo not drawn) [Compound 1-38, 1-[3-(7-{[3-(3-Hydroxy-pyrrolidin-1-yl)-propoxyimino]-methyl}-imidazo[1,2-a]pyridin-3-yl)-phenyl]-3-(2,2,2-trifluoro-ethyl)-urea] | 21% | – | – | – |
| 0.18 µM | 250 nM | 0.018 µM | – | – | O=C(NCC(F)(F)F)Nc1cccc(-c2cnc3cc(/C(=N\OCCO)C4CC4)ccn23)c1 [Compound 1-33, 1-[3-(7-{Cyclopropyl-[2-hydroxy-ethoxyimino]-methyl}-imidazo[1,2-a]pyridin-3-yl)-phenyl]-3-(2,2,2-trifluoro-ethyl)-urea] | – | – | 11000 nM | – |
| 0.33 µM | – | 0.024 µM | – | 42.0% at | O=C(NCC(F)(F)F)Nc1cccc(-c2cnc3cc(C=NOCCC4CCNCC4)ccn23)c1 [Compound 1-59, 1-(3-{7-[(2-Piperidin-4-yl-ethoxyimino)-methyl]-imidazo[1,2-a]pyridin-3-yl}-phenyl)-3-(2,2,2-trifluoro-ethyl)-urea] | 11% | – | – | – |
| 0.66 µM | 230 nM | 0.013 µM | – | – | Cc1cc(CON=Cc2ccn3c(-c4cccc(NC(=O)NCC(F)(F)F)c4)cnc3c2)no1 [Compound 1-17, 1-(3-{7-[(5-Methyl-isoxazol-3-ylmethoxyimino)-methyl]-imidazo[1,2-a]pyridin-3-yl}-phenyl)-3-(2,2,2-trifluoro-ethyl)-urea] | – | – | 4100 nM | – |
| 0.5 µM | 310 nM | 0.016 µM | – | – | CN(C)S(=O)(=O)N1CCN(CCCO/N=C/c2ccn3c(-c4cccc(NC(=O)NCC(F)(F)F)c4)cnc3c2)CC1 [Compound 1-63, 4-{3-[1-(3-{3-[3-(2,2,2-Trifluoro-ethyl)-ureido]-phenyl}-imidazo[1,2-a]pyridin-7-yl)-meth-(E)-ylideneaminooxy]-propyl}-piperazine-1-sulfonic acid dimethylamide] | – | 45% | – | – |
